In patent publication US20130172294A1, “Treatment with VB-201” (Vascular Biogenics Ltd., priority 2010, published 2013):
Read-outs that look alike come from different tables or passages of the source.

Assays:
[1] = Safety and tolerability of single dose (Example 1); type: in vivo, human; details: single oral dose 1-50 mg
Description: Safety and tolerability of VB-201 was judged by evaluating the incidence of abnormal findings in the following measurements: vital signs: systolic and diastolic blood pressure, heart rate, respiratory rate, body temperature; physical examination; 12-lead electrocardiogram; laboratory tests of blood samples for: complete blood count, prothrombin time/partial thromboplastin time, LDL- and HDL-cholesterol, total cholesterol, triglycerides, glucose, blood urea nitrogen, sodium, potassium, creatinine, calcium, phosphorus, creatinine phosphokinase, lactate dehydrogenase, aspartate transaminase, alanine transaminase, γ-glutamyl transferase, alkaline phosphatase, protein, albumin, total bilirubin, total IgM and IgG antibodies, interleukin-12/23 p40, tumor necrosis factor-α, and interleukin-6, as well as routine urinalysis; and all adverse events, whether or not considered serious, and whether or not considered related to the investigational agent, according to the criteria for Good Clinical Practice. Treatment-emergent adverse events were defined as any adverse event that started on or after administration of the first dose of VB-201, and no more than 30 days after administration of the last dose, or are ongoing at the time of the first dose and worsened in severity or frequency during treatment. […] All subjects were healthy male volunteers. Five cohorts of six subjects each received a single dose of 1, 3, 10, 30 or 50 mg VB-201. 10 subjects received a placebo. The VB-201 was formulated in gelatin capsules enterocoated with Eudragit®.

[2] = test system: adjuvant-induced arthritis; details: in vivo animal model; cited from earlier work
C-reactive protein (CRP) = test system: C-reactive protein (CRP)
Description: C-reactive protein (CRP) levels in plasma samples were measured using a CRP Latex assay kit (Olympus) and an AU400® immuno-analyzer (Olympus).
A randomized, double-blind, placebo-controlled study was performed to in order to investigate the safety, tolerability and pharmacokinetics of VB-201 at a repeated, daily dose taken orally. The subjects were all healthy volunteers. Cohorts of six subjects each received a daily dose of 40 or 80 mg VB-201 in the morning, following at least 10 hours of fasting, for 14 days. 6 subjects received a placebo. The VB-201 was formulated in non-enterocoated capsules.
Further studies were performed on an additional cohort, which included six subjects receiving a daily dose of 80 mg VB-201, as described hereinabove, for 28 days. An additional two subjects received a placebo.
Plasma samples obtained on day 0 (pre-dosing) and on day 14 from the subjects in each cohort (40 mg for 14 days, 80 mg for 14 days, and 80 mg for 28 days), and on day 28 from the subjects of the cohort receiving 80 mg VB-201 for 28 days, were assayed for C-reactive protein (CRP) by the high sensitivity CRP assay described hereinabove.

SMILES: CCCCCCCCCCCCCCCCOCC(COP(=O)([O-])OCC[N+](C)(C)C)OCCCCC(=O)O (stereo not shown) [VB-201, 1-hexadecyl-2-(4′-carboxybutyl)-glycerol-3-phosphocholine]
- electrocardiogram findings [1]: None of the subjects which received VB-201 had clinically significant electrocardiogram findings
- safety profile [1]: comparable safety profile of VB-201 to a placebo
- serious adverse events [1]: No serious adverse events occurred
- efficacy in adjuvant-induced arthritis [2]: effective
- reduction of plasma CRP levels (C-reactive protein (CRP); 40 mg per day for 14 days): 49%
- reduction of plasma CRP levels (C-reactive protein (CRP); 80 mg per day for 14 days): 43%
- reduction of plasma CRP levels (C-reactive protein (CRP); 80 mg per day for 28 days): 45%
